ChEMBL document CHEMBL6087425, “Synthesis and evaluation of anti-Giardia activity of oseltamivir analogs” (Bioorg Med Chem Lett, 2025)

Key:
[1] = test system: Giardia intestinalis; test: Anti-parasitic activity against Giardia intestinalis assemblage A ATCC 30957 trophozoites assessed as inhibition of cyst production incubated for 24 hrs; type: functional, organism-based; conditions: Giardia duodenalis, assemblage A ATCC 30957, 24 h
[2] = test system: Giardia intestinalis; test: Anti-parasitic activity against Giardia intestinalis assemblage A ATCC 30957 trophozoites assessed as inhibition of parasite growth incubated for 24 hrs; type: functional, organism-based; conditions: Giardia duodenalis, assemblage A ATCC 30957, 24 h

Row | Compound | IC50 [1] [µM] | IC50 [2] [µM]
1 | CCC(CC)O[C@@H]1CC(C(=O)O)=C[C@H](N=[N+]=[N-])[C@H]1NC(C)=O | 50 | 30
2 | CCCC(=O)N[C@@H]1[C@@H](N=[N+]=[N-])C=C(C(=O)O)C[C@H]1OC(CC)CC | 46 | 51
3 | CCOC(=O)C1=C[C@H](NC(=O)CF)[C@@H](NC(C)=O)[C@H](OC(CC)CC)C1 | 41 | 54
4 | CCOC(=O)C1=C[C@@H](OC(CC)CC)[C@H](NC(C)=O)[C@@H](N)C1 [OSELTAMIVIR] | 46 | > 120

Further lines, with some results ahead:

Row | IC50 [1] [µM] | Compound | IC50 [2] [µM]
5 | 42 | CCC(CC)O[C@@H]1CC(C(=O)O)=C[C@H](N)[C@H]1NC(C)=O | 49
6 | 41 | CCC(CC)O[C@@H]1CC(C(=O)O)=C[C@H](NC(C)=O)[C@H]1NC(C)=O | 40
7 | 4 | Cc1ncc([N+](=O)[O-])n1CCO [METRONIDAZOLE] | 4
